Molecular target: T1, CYP 1A2 (Homo sapiens, UniProt P05177)
T1 construct: For human liver microsome solution, a stock solution (20 mg/mL (4×final)) is used; from tissue; host or cells: human liver microsomes
T1 sequence (P05177 1-516): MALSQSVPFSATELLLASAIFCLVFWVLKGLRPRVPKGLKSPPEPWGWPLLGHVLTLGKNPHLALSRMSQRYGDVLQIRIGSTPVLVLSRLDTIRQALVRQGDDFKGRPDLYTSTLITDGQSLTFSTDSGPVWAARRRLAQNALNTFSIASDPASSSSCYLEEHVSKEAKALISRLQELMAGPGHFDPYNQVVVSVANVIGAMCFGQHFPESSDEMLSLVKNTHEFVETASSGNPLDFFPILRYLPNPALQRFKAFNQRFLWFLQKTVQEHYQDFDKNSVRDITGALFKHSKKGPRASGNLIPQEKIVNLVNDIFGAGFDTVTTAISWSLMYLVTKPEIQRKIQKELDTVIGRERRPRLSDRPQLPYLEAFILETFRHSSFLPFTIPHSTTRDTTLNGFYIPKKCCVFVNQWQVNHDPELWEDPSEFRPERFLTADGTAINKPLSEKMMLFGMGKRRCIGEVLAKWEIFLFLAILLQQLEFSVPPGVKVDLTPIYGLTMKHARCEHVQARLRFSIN
Assay: CYP inhibition testing, CYP 1A2
Format: in vitro ADME
Details: human liver microsomes; >75 = low level of inhibition
Protocol: Select compounds are tested for CYP inhibition against five different CYP enzymes: CYP 1A2, CYP 2C9, CYP 2C19, CYP 2D6, CYP 3A4. Individual CYP enzymes are incubated with corresponding substrates with no inhibitor (negative control). Individual CYP enzymes are then incubated with corresponding substrates in the presence of test compound. […] Values of 70>v, w, x, y, z>30 indicate moderate level of inhibition of the corresponding enzyme.
The following reagents are used: Sodium Phosphate, monobasic; Sodium Phosphate, dibasic; β-Nicotinamide Adenine Dinucleotide Phosphate-Reduced (NADPH), Roche; Milli-Q Water; 0.1 M Potassium phosphate buffer (K-buffer), pH 7.4. The following stock solutions are used. Stock A (136.5 g of monobasic potassium phosphate in 1 L of Milli-Q water (1.0 M)). Stock B (174.2 g of dibasic potassium phosphate in 1 L of Milli-Q water (1.0 M)). 40.5 mL of Stock B is mixed with 9.5 mL of Stock A, and the total volume brought near 500 mL with Milli-Q water to give 0.1 M potassium phosphate buffer. The buffer is titrated with KOH or H3PO4 to pH 7.4. To prepare a cofactor buffer (4×, 8 mM NADPH), 66.7 mg of NADPH tetrasodium salt is dissolved in 10 mL of K-buffer. For human liver microsome solution, a stock solution (20 mg/mL (4×final)) is used.
The following Positive control stock solutions are prepared: 0.3 mM α-Naphthoflavone (MW: 272.3, 0.0817 mg of α-Naphthoflavone in 1 mL DMSO), 10 mM Sulfaphenazole (MW: 314.4, 3.14 mg of sulfaphenazole in 1 mL DMSO) 100 mM Omeprazole (MW: 345.4, 34.54 mg of omeprazole in 1 mL DMSO), 2.5 mM Quinidine (MW: 324, 0.81 mg of quinidine in 1 mL DMSO), and 2.5 mM Ketoconazole (MW: 531.4, 1.33 mg of ketoconazole in 1 mL DMSO).
The following substrate stock solutions are prepared: 6 mM Phenacetin (MW: 179.22, 1.075 mg of phenacetin in 1 mL can), 10 mM Diclofenac (MW: 318.83, 3.18 mg of Diclofenac in 1 ml H2O), 35 mM S-Mephenyloin (MW: 218.25, 7.64 mg of s-mephenyloin in 1 mL ACN 10 mM Bufuralol (MW: 297.82, 2.98 mg of Bufuralol in 1 ml H2O), 1 mM Midazolam (MW: 325.77, 0.326 mg of midazolam in 1 mL can), and 10 mM Testosterone (MW: 288.42, 2.88 mg of Testosterone in 1 ml ACN.
Test compounds and reference compounds (positive control) are prepared in 0.2 mg/ml liver microsome solution. A 0.2 mg/ml liver microsome solution (2×final) is prepared from stock solution by adding 10 μL microsome stock solutions (20 mg/ml) in 990 μL K-buffer. 8 μL of 10 mM test compound stock solution (in DMSO or other solvent at various concentrations) is diluted with 12 μL ACN to make 4 mM solutions. 1:3 serial dilutions are performed using DMSO/ACN (40:60) from 4 mM solution further down seven concentration points (400×final): 4 mM, 1.33 mM, 0.44 mM, 0.148 mM, […], 0.0165 mM, 0.00549 mM, 0 mM. […]

SMILES	CYP (% negative controls) 1A2 [% negative controls]
Cn1nc(C(=O)NC2CCNCC2)c2ccc(N3CCCCCC3)nc21.O=C(O)C(F)(F)F.O=C(O)C(F)(F)F [compound 697]	97
CCC(CC)Oc1ccc2c(C(=O)NC3CCNCC3)n[nH]c2n1 [compound 726]	102
Cn1nc(C(=O)NC2CCN(CCN3CCCCC3)CC2)c2ccc(N3CCCCCC3)nc21 [compound 1047]	98
Cn1nc(CCCN2CCCC2)c2ccc(N3CCCCCCC3)nc21 [compound 1171]	104

Reference: US20120232062A1, “AZAINDAZOLES TO TREAT FLAVIVIRIDAE VIRUS INFECTION” (EIGER BIOPHARMACEUTICALS, INC., priority 2009, published 2012)
